Laboratory results taken from PubChem BioAssay (NCI).
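Cells were grown in 96-well plates and exposed to each compound for 48 hours at five concentrations; endpoints were interpolated linearly between bracketing concentrations, or set to the highest concentration if not reached. GI50: concentration for 50% inhibition of growth. The concentration for full growth arrest is given as TGI.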

Key:
Assay in all cases: growth of human tumour cells (NCI), 48 h
SF-268 CNS = tested on: SF-268 CNS
SNB-75 CNS = tested on: SNB-75 CNS
SNB-19 CNS = tested on: SNB-19 CNS
LOX IMVI melanoma = tested on: LOX IMVI melanoma
SK-MEL-5 melanoma = tested on: SK-MEL-5 melanoma
T-47D breast = tested on: T-47D breast
SK-OV-3 ovarian = tested on: SK-OV-3 ovarian
RPMI-8226 leukemia = tested on: RPMI-8226 leukemia
KM12 colon = tested on: KM12 colon
HCT-116 colon = tested on: HCT-116 colon
NCI-H226 lung = tested on: NCI-H226 lung
OVCAR-5 ovarian = tested on: OVCAR-5 ovarian
786-0 renal = tested on: 786-0 renal
MDA-MB-435 = tested on: MDA-MB-435
CCRF-CEM leukemia = tested on: CCRF-CEM leukemia
OVCAR-8 ovarian = tested on: OVCAR-8 ovarian
MALME-3M melanoma = tested on: MALME-3M melanoma
HL-60(TB) leukemia = tested on: HL-60(TB) leukemia
SK-MEL-28 melanoma = tested on: SK-MEL-28 melanoma
NCI-H23 lung = tested on: NCI-H23 lung
ACHN renal = tested on: ACHN renal
TK-10 renal = tested on: TK-10 renal
COLO 205 colon = tested on: COLO 205 colon
HS 578T breast = tested on: HS 578T breast
K-562 leukemia = tested on: K-562 leukemia
MOLT-4 leukemia = tested on: MOLT-4 leukemia
A498 renal = tested on: A498 renal
SF-539 CNS = tested on: SF-539 CNS
NCI-H460 lung = tested on: NCI-H460 lung
SF-295 CNS = tested on: SF-295 CNS
HOP-92 NSCLC = tested on: HOP-92 NSCLC
SN12C renal = tested on: SN12C renal
SW-620 colon = tested on: SW-620 colon
EKVX NSCLC = tested on: EKVX NSCLC
BT-549 breast = tested on: BT-549 breast
M14 melanoma = tested on: M14 melanoma
UACC-62 melanoma = tested on: UACC-62 melanoma
OVCAR-4 ovarian = tested on: OVCAR-4 ovarian
HT29 colon = tested on: HT29 colon
SR leukemia = tested on: SR leukemia
NCI-H522 lung = tested on: NCI-H522 lung
MCF7 breast = tested on: MCF7 breast
SK-MEL-2 melanoma = tested on: SK-MEL-2 melanoma
PC-3 prostate = tested on: PC-3 prostate
MDA-MB-231 breast = tested on: MDA-MB-231 breast
U251 CNS = tested on: U251 CNS
UO-31 renal = tested on: UO-31 renal
HCT-15 colon = tested on: HCT-15 colon
IGROV1 ovarian = tested on: IGROV1 ovarian
HOP-62 NSCLC = tested on: HOP-62 NSCLC
A549 NSCLC = tested on: A549 NSCLC
UACC-257 melanoma = tested on: UACC-257 melanoma
DU-145 prostate = tested on: DU-145 prostate
NCI/ADR-RES ovarian = tested on: NCI/ADR-RES ovarian
CAKI-1 renal = tested on: CAKI-1 renal
OVCAR-3 ovarian = tested on: OVCAR-3 ovarian

Work on c1cc(N2CCN(c3ccc(C4=NCCN4)cc3)CC2)ccc1C1=NCCN1 yielded a GI50 (SF-268 CNS) greater than 75.3 µM, a TGI (SF-268 CNS) greater than 100 µM and a GI50 (SNB-75 CNS) greater than 100 µM. For the same compound, the TGI (SNB-75 CNS) was greater than 100 µM, the GI50 (SNB-19 CNS) was greater than 100 µM and the TGI (SNB-19 CNS) was greater than 100 µM. It also gave a GI50 (LOX IMVI melanoma) greater than 100 µM, a TGI (LOX IMVI melanoma) greater than 100 µM and a GI50 (SK-MEL-5 melanoma) of 22.4 µM. For the same compound, the TGI (SK-MEL-5 melanoma) was greater than 68.8 µM, the GI50 (T-47D breast) was greater than 100 µM and the TGI (T-47D breast) was greater than 100 µM. It also gave a GI50 (SK-OV-3 ovarian) greater than 100 µM, a TGI (SK-OV-3 ovarian) greater than 100 µM and a GI50 (RPMI-8226 leukemia) of 12.8 µM. The TGI (RPMI-8226 leukemia) was greater than 53.5 µM, the GI50 (KM12 colon) was greater than 49 µM and the TGI (KM12 colon) was greater than 96.1 µM. The GI50 (HCT-116 colon) was greater than 100 µM, the TGI (HCT-116 colon) was greater than 100 µM and the GI50 (NCI-H226 lung) was greater than 80.6 µM. It also gave a TGI (NCI-H226 lung) greater than 100 µM, a GI50 (OVCAR-5 ovarian) greater than 100 µM and a TGI (OVCAR-5 ovarian) greater than 100 µM. The GI50 (786-0 renal) was greater than 68.9 µM, the TGI (786-0 renal) was greater than 100 µM and the GI50 (MDA-MB-435) was 58 µM. It also gave a TGI (MDA-MB-435) greater than 100 µM, a GI50 (CCRF-CEM leukemia) greater than 87.4 µM and a TGI (CCRF-CEM leukemia) greater than 100 µM. It also gave a GI50 (OVCAR-8 ovarian) of 37.2 µM, a TGI (OVCAR-8 ovarian) greater than 100 µM and a GI50 (MALME-3M melanoma) of 48.8 µM. The TGI (MALME-3M melanoma) was greater than 100 µM, the GI50 (HL-60(TB) leukemia) was greater than 100 µM and the TGI (HL-60(TB) leukemia) was greater than 100 µM. For the same compound, the GI50 (SK-MEL-28 melanoma) was greater than 67.5 µM, the TGI (SK-MEL-28 melanoma) was greater than 100 µM and the GI50 (NCI-H23 lung) was greater than 44.4 µM. It also gave a TGI (NCI-H23 lung) greater than 100 µM, a GI50 (ACHN renal) greater than 100 µM and a TGI (ACHN renal) greater than 100 µM. The GI50 (TK-10 renal) was 43 µM, the TGI (TK-10 renal) was 98.9 µM and the GI50 (COLO 205 colon) was greater than 100 µM. For the same compound, the TGI (COLO 205 colon) was greater than 100 µM, the GI50 (HS 578T breast) was 25.1 µM and the TGI (HS 578T breast) was greater than 78.2 µM. The GI50 (K-562 leukemia) was 39.4 µM, the TGI (K-562 leukemia) was greater than 100 µM and the GI50 (MOLT-4 leukemia) was greater than 100 µM. The TGI (MOLT-4 leukemia) was greater than 100 µM, the GI50 (A498 renal) was 7.5 µM and the TGI (A498 renal) was greater than 100 µM. For the same compound, the GI50 (SF-539 CNS) was 55.4 µM, the TGI (SF-539 CNS) was greater than 100 µM and the GI50 (NCI-H460 lung) was 24.9 µM. The TGI (NCI-H460 lung) was greater than 100 µM, the GI50 (SF-295 CNS) was 24.8 µM and the TGI (SF-295 CNS) was greater than 80.4 µM. It also gave a GI50 (HOP-92 NSCLC) greater than 100 µM, a TGI (HOP-92 NSCLC) greater than 100 µM and a GI50 (SN12C renal) of 1.85 µM. For the same compound, the TGI (SN12C renal) was greater than 26.4 µM, the GI50 (SW-620 colon) was greater than 100 µM and the TGI (SW-620 colon) was greater than 100 µM. The GI50 (EKVX NSCLC) was 11.5 µM, the TGI (EKVX NSCLC) was 65.2 µM and the GI50 (BT-549 breast) was 24.9 µM. For the same compound, the TGI (BT-549 breast) was greater than 84.5 µM, the GI50 (M14 melanoma) was greater than 61 µM and the TGI (M14 melanoma) was greater than 100 µM. The GI50 (UACC-62 melanoma) was 41.9 µM, the TGI (UACC-62 melanoma) was greater than 100 µM and the GI50 (OVCAR-4 ovarian) was greater than 100 µM. The TGI (OVCAR-4 ovarian) was greater than 100 µM, the GI50 (HT29 colon) was greater than 100 µM and the TGI (HT29 colon) was greater than 100 µM. The GI50 (SR leukemia) was 30.8 µM, the TGI (SR leukemia) was greater than 100 µM and the GI50 (NCI-H522 lung) was 21.2 µM. For the same compound, the TGI (NCI-H522 lung) was greater than 77.3 µM, the GI50 (MCF7 breast) was 24.6 µM and the TGI (MCF7 breast) was greater than 100 µM. The GI50 (SK-MEL-2 melanoma) was 52.4 µM, the TGI (SK-MEL-2 melanoma) was greater than 100 µM and the GI50 (PC-3 prostate) was greater than 73.6 µM. It also gave a TGI (PC-3 prostate) greater than 100 µM, a GI50 (MDA-MB-231 breast) greater than 100 µM and a TGI (MDA-MB-231 breast) greater than 100 µM. It also gave a GI50 (U251 CNS) of 32.7 µM, a TGI (U251 CNS) greater than 100 µM and a GI50 (UO-31 renal) greater than 72 µM. For the same compound, the TGI (UO-31 renal) was greater than 100 µM, the GI50 (HCT-15 colon) was 66.3 µM and the TGI (HCT-15 colon) was greater than 100 µM. It also gave a GI50 (IGROV1 ovarian) of 55.9 µM, a TGI (IGROV1 ovarian) greater than 100 µM and a GI50 (HOP-62 NSCLC) of 16 µM. For the same compound, the TGI (HOP-62 NSCLC) was 58.7 µM, the GI50 (A549 NSCLC) was 66.7 µM and the TGI (A549 NSCLC) was greater than 100 µM. It also gave a GI50 (UACC-257 melanoma) of 58.7 µM, a TGI (UACC-257 melanoma) of 97.5 µM and a GI50 (DU-145 prostate) of 45.7 µM. The TGI (DU-145 prostate) was greater than 100 µM, the GI50 (NCI/ADR-RES ovarian) was greater than 100 µM and the TGI (NCI/ADR-RES ovarian) was greater than 100 µM. For the same compound, the GI50 (CAKI-1 renal) was greater than 57.5 µM, the TGI (CAKI-1 renal) was greater than 100 µM and the GI50 (OVCAR-3 ovarian) was greater than 46.9 µM. It also gave a TGI (OVCAR-3 ovarian) greater than 86 µM.
